Data taken from article PMC10949195, “Exponential Combination of a and e/g Intracellular Peptide Libraries Identifies a Selective ATF3 Inhibitor” (ACS Chemical Biology, 2024).

Legend:
ATF3 = target: T1, ATF3 (Homo sapiens, UniProt P18847); experiment: Isothermal titration calorimetry (ITC); type: binding; details: 20 °C, pH 7.0
T1 construct: We focus on the selective targeting of the ATF3 leucine zipper dimerization domain using intracellular peptide library screening; made in house; host or cells: chemical solid-phase peptide synthesis (no expression host)
T1 sequence (P18847 110-143): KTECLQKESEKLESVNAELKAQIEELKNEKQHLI
Procedure: To provide additional insight into the origin of the binding affinity (KD) between ATF3 and ATF3W_aeg, isothermal titration calorimetry (ITC) experiments were performed. […] The free energy of binding was predominantly driven by a favorable enthalpic term (ΔH = −14.6 kcal/mol) and opposed by an unfavorable entropic component (TΔS= −5.33 kcal/mol).
Figure 9 Isothermal titration calorimetry analysis of the ATF3-ATF3W_aeg interaction. In the bottom plot, the solid line represents the fit to the data based on the binding of a ligand to a macromolecule using the MicroCal (GE Healthcare) Origin software.[16] See Materials and Methods for further details.
ITC measurements were made using a Microcal PEAQ-ITC instrument with data collected and processed using the Origin 7.0 software package.[14],[23] All measurements were carried out at least twice. Briefly, all peptides were studied at 20 °C in 10 mM potassium phosphate and 100 mM potassium fluoride at pH 7.0. 40 μL of ATF3W_aeg was loaded into the syringe at 60 μM peptide concentration. 350 μL of ATF3 was loaded into the cell at 6 μM. The experiment was undertaken by injecting 2 μL of ATF3W_aeg 19 times into the calorimetric cell. Following ITC measurements, the data were fit to a one-site model.

[1] = tested on: M2 macrophages differentiated from the human THP-1 monocytic cell line; experiment: THP-1 polarization assay and CCL-4 ELISA; type: cell-based; details: M2 macrophages from THP-1 (IL-4 polarized); 20 μM peptide with NLS-TAT appendage; 48 h; versus untreated
Source text: ATF3 is a transcriptional repressor that regulates both the extent and duration of pro-inflammatory gene expression.[17] Specifically, ATF3 has been implicated in the transcriptional repression of chemokines including chemokine (C–C motif) ligand 4 (CCL4),[18] also known as macrophage inflammatory protein (MIP-1β), which promotes recruitment of additional immune cells to inflamed tissues. In the context of cancer, ATF3 activity counters antitumor immunity and promotes tumor growth. We therefore explored the effect of the ATF3W-aeg antagonist peptide on CCL4 expression in M2 anti-inflammatory macrophages differentiated from the human THP-1 monocytic cell line. […]
Figure 10 ATF3W-aeg peptide stimulates expression of pro-inflammatory cytokine in M2 macrophages. CCL4 protein levels were measured by ELISA from supernatants of M2 macrophage cultures treated with either 20 μM ATF3W-aeg or negative control peptide (****p < 0.0001). […]
THP-1 cells were seeded in 12-well format at a concentration of 5 × 10^5 cells/well and treated with 7.5 ng/mL Phorbol 12-Myristate 13-Acetate (PMA, Sigma-Aldrich) in RPMI media supplemented with 10% FBS and 55 μM β-mercaptoethanol (BME). […] After 48 h, supernatants were collected and clarified by centrifugation, and the CCL-4 concentration was assessed by ELISA (MIP-1b Human Instant ELISA Kit, ThermoFisher Scientific) according to the manufacturer’s protocol.

[2] = Peptide permeability assay (PAMPA); type: in vitro ADME
Source text: Fig S4: CD data for ATF3 interacting with ATF3W-a and ATF3W-eg.
Peptide permeability assay: The PAMPA assay measures permeability across an artificial membrane. This method provides an in vitro model for passive diffusion. Passive diffusion is an important factor in determining transport through the gastrointestinal tract, penetration of the blood brain barrier, as well as transport across cell membranes. Permeability can also be influenced by several other mechanisms including paracellular transport and active uptake or efflux which are not assessed in PAMPA. Therefore, PAMPA provides a simplistic approach to permeability by only measuring a single mechanism. […]
Peptide permeability assay: To evaluate the peptide permeability, the BD™ pre-coated PAMPA plate system was employed. […] The peptide concentrations in both plates were determined by UV spectroscopy after the assembly plate system were incubated at room temperature for 5 hours, and the peptide permeability and mass retention were calculated by using the PAMPA plate system formula which recommended in the manufacture manual. […]
Serum stability: The quantity of peptide detected by LC-MS is plotted relative to the starting point […]
Fig S5: Shown are serum stability of ATF3W-aeg. The quantity of peptide detected by LC-MS is plotted […]

Ac-ELAALEQKAYALKQENAALEKEVAALEQKIAALK-NH2 (N-terminus and C-terminus assumed) [ATF3W_aeg]
N (sites), stoichiometry of binding to ATF3 (ATF3): 0.72 | TΔS of binding to ATF3 (ATF3): -5.33 kcal/mol | ΔG of binding to ATF3 (ATF3): -9.31 kcal/mol | ΔH of binding to ATF3 (ATF3): -14.6 kcal/mol | effect on CCL4 expression (protein in supernatant, ELISA) [1]: significantly increased CCL4 expression | PAMPA mass retention ([2]; BD pre-coated PAMPA plate system, 200uM peptide in PBS, room temperature, 5 hours, UV spectroscopy): 5.8% | PAMPA permeability category ([2]; category by Log(Permeability) larger than -6, industry standard in BD PAMPA manual): high permeability
